The text below walks through data of US20070009544A1, “Anti-allergic complex molecules” (priority 1999, published 2007).

Converted amounts (≈) assume the structure as drawn. Numbered stars: 1 amine (or outer) side, 2 acyl side, 3 side chain; on linkers, the order of the positions; unused ones are H or OH. Peptide text beside a SMILES is read from it. Suc = O=C(CCC(=O)[*:2])[*:1]

For data set [1], the system named is purified rat peritoneal mast cells. Description: Histamine secretion from intact mast cells incubated with peptide alone (secretagogue side effect). To be noted: for Secretagogue (histamine secretion following incubation of mast cell with different concentrations of each peptide): Table 9, no allergen; for Secretagogue (histamine secretion following incubation of mast cell with different concentrations of each peptide) / basal level of histamine secretion compared to control cells: peptide alone; for histamine secretion from mast cells on incubation with increasing concentrations of peptide alone: no additional allergen; for basal level of histamine secretion compared to control cells: increasing concentrations.
Experimental: Mast cells from the peritoneal cavity of C.R rats were isolated in Tyrode buffer (137 mM NaCl, 2.7 mM KC1, 1 mM MgCl2, 0.4 mM NaH2PO4, 20 mM Hepes, 1.0 mM CaCl2, 5.6 mM glucose, 1 mg/ml BSA, pH 7.2) and purified over a Ficoll gradient. A suspension of washed peritoneal cells was placed over a cushion of 30% Ficoll 400 (Pharmacia Biotech.) in buffered Saline containing 0.1% BSA; and centrifuged at 150O×g for 15 min. The purity of mast cells recovered from the bottom of the tube was >90%, as assessed by toluidine blue staining.
Purified mast cells (duplicated of 10^5 cells/0.5 ml) were incubated in Tyrode buffer with buffer or with desired concentrations of the indicated peptide for 2 h. at. 37° C. Histamine secretion was subsequently stimulated by the indicated concentration of compound 48/80 (Sigma) dissolved in Tyrode buffer. Incubation with compound 48/80 was carried out for 20 mm.in at 37° C. The reaction was terminated by placing the tubes on ice. The cells were sedimented by centrifugation at 150×g for 5 mm.in and the supernatants were collected. The amount of histamine release was determined as previously described (Aridor et al., 1990). Briefly, cell pellets were lysed using 0.1N NaOH and the volume of each sample was adjusted to 0.5 ml by H2O. Histamine content was assayed using the o-phtalaldehyde (OPT) fluorimetric method (Shore et al., 1959). Aliquots of 0.4 ml from the supernatants and cell lysates were incubated with 1.6 ml H20, 0.4 ml 1N NaOH and 0.1 ml of 10 mg/l ml OPT in methanol, for 4 min at room temperature. The reaction was terminated by the addition of 0.2 ml 3N HCl. Samples were centrifuged at 150×g for 5 min. and 0.2 ml samples were transferred to a 96 well plate. The histamine spectrofluorometric assay was run in microplates using a microplates reader (FL-600, Biotek instruments Winooski, Vt., USA). Samples were excited by light at 340 nm and read at 440 nm. Histamine release was calculated as the percentage of total histamine content (supernatant/pellet+supernatant) in each sample. Each data point represents the average of duplicate measurements. The spontaneously released histamine was subtracted.

Data set [2] shares this test system. The format is cell-based. To be noted: for maximal inhibition of compound 48/80 induced histamine secretion: 600 μg/ml peptide, compound 48/80 concentration not given; for Inhibitor (extent of inhibition of histamine secretion from mast cells): Table 9, incubation with different concentrations of each peptide, then induction of the allergic reaction. Here is the method: 37° C. […] Each data point represents the average of duplicate measurements. The spontaneously released histamine was subtracted.
First, the effect of compound 48/80 on exocytosis from intact mast cells was determined. […] Histamine release was determined and is presented as the net secretion that is % of the total cellular histamine following subtraction of the spontaneously released histamine. Half-maximal release was obtained at 0.1 μg/ml while maximal release was obtained at 1-10 μg/ml. Accordingly, in order to analyze the potential of each peptide to block histamine secretion, histamine secretion was induced with 5 μg/ml compound 48/80, a concentration that induces a maximal histamine release, while the cells were incubated in the presence of increasing concentrations of each peptide.
In order to investigate the ability of these peptides to block allergen-induced exocytosis, the peptides were examined for their ability to block compound 48/80 induced histamine secretion from intact mast cells in vitro. Mast cells were incubated with different concentrations of each peptide, followed by induction of histamine secretion by compound 48/80.

Data set [3] has as its system abdominal skin of C.R rats. The data set is described as follows: Rat skin test: intradermal injection of peptide, then intradermal compound 48/80 or vehicle, wheal area. To be noted: for block of compound 48/80 induced allergic reaction in vivo, rat skin: intradermal peptide; for Wheal Area, Vehicle (representative experiment) / Mean Wheal Area ± STD, Vehicle: 0.5 hour before; for Wheal Area, Compound 48/80 (representative experiment) / Mean Wheal Area ± STD, Compound 48/80: 0.5 hour before allergic induction; for reduction of compound 48/80 induced allergic reaction: intradermal peptide 0.5 hour before allergic induction; for Mean Wheal Area ± STD, Vehicle: vehicle instead of compound 48/80. The data set is classed as in vivo. Here is the method: The hair of the abdominal area of C.R rats was carefully removed with an electric clipper and a depilatory cream. In each animal the abdominal area was divided to six equal zones that were marked by pen. Each zone was either subjected to peptide treatment or served as a control. In the first set of experiments, the peptide was topically applied as follows: 36 μl of peptide solution at the indicated concentration (dissolved in 72% DMSO in saline) was applied on desired abdominal area. In the second set of experiments, the peptide was injected intradermally as follows: 20 μl of peptide solution at different concentrations (dissolved in 10% DMSO in saline) was injected intradermally to an indicated abdominal area using a 27-gauge sterile needle.
Skin tests were performed 0.5, 1 or 2 hours following application of the peptide. Skin tests were performed by injecting intradermally 20 μl of the allergen (0.1 mg/ml compound 48/80 dissolved in saline) or saline alone, into the center of each marked area on the abdominal skin using a 27-gauge sterile needle. The allergic response was monitored by outlining with a marker the wheals which developed in response to allergen or saline treatment.
To quantitate the skin test results, the marker signs were transferred onto paper with scotch tape. The areas of the wheals were outlined and calculated by a computerized planimeter (Hewlett-Packard), as previously described (Sussman et al., 1982).
Tables 10-16 presents the mean areas of the wheals, which developed in response to intradermal injection of each of the tested peptides, followed by either compound 48/80 or DDW injection applied after 0.5 or 1 hour. Two doses were tested for each peptide-20 and 200 μg (injection of 20 μl from a stock solution of 1 mg/ml or 10 mg/m respectively).
Skin tests on rats using compound 48/80 as the allergen assessed the ability of the peptides of the present invention to block allergic cutaneous reactions. The abdominal skin of the rats was subjected to peptide (indicated concentrations are listed in Tables 17A-17B below) or vehicle treatment (intradermal injection); the allergic response was induced by intradermal injection of compound 48/80 at various times; and the allergic response was quantified by calculating the area of the resultant allergic wheals.

On to `CC(C)C[C@H](NC(=O)CNC(=O)[C@H](CS)NC(=O)[C@H](CCC(=O)O)NC(=O)[C@H](CCCCN)NC(=O)[C@H](CC(C)C)NC(=O)[C@H](CC(N)=O)NC(=O)[C@H](CCC(N)=O)NC(=O)[C@H](CCCCN)NC(=O)[C@@H]1CCCN1C(=O)[C@H](C)NC(=O)[C@H](CC(C)C)NC(=O)[C@H](CC(C)C)NC(=O)[C@H](C)NC(=O)[C@H](CC(C)C)NC(=O)[C@H](CC(C)C)NC(=O)[C@@H](NC(=O)[C@H](C)NC(=O)[C@@H]1CCCN1C(=O)[C@H](CC(C)C)NC(=O)[C@H](CC(C)C)NC(=O)[C@H](C)NC(=O)[C@@H](NC(=O)[C@H](C)NC(=O)[C@H](C)NC(=O)CCC(=O)O)C(C)C)C(C)C)C(=O)N[C@@H](Cc1ccc(O)cc1)C(=O)O` [WALL015] (Suc-AAVALLPAVLLALLAPKQNLKECGLY-OH; C-terminus assumed), for which, in data set [1], the “Secretagogue (histamine secretion following incubation of mast cell with different concentrations of each peptide)” value is “−”, the “histamine secretion from mast cells on incubation with increasing concentrations of peptide alone” value was “did not result in histamine secretion” and the “basal level of histamine secretion compared to control cells” value (“basal level … compared to control cells” below) is listed as “minor inhibition of the basal level of histamine secretion”. In data set [2], the “IC50, compound 48/80 induced histamine secretion” value amounted to 300 µg/mL (≈ 107 µM); the “maximal inhibition of compound 48/80 induced histamine secretion” value (“maximal inhibition” for short) was found to be 75%; the “Inhibitor (extent of inhibition of histamine secretion from mast cells)” value (shortened to “Inhibitor”) was “++ (++ Moderate inhibitor (50%-70% inhibition))”. Also, in data set [3], the “block of compound 48/80 induced allergic reaction in vivo, rat skin” value (shortened to “block”) is “effectively block the allergic response in vivo” and the “reduction of compound 48/80 induced allergic reaction” value (shortened to “reduction”) is on record as “reduced the allergic reaction”. Moreover, in data set [3] (intradermal peptide 1 mg/ml), the “Wheal Area, Vehicle (representative experiment)” value is recorded as 110.4 mm^2 and the “Wheal Area, Compound 48/80 (representative experiment)” value came to 100.1 mm^2. Moreover, in data set [3] (intradermal peptide 10 mg/ml), the “Wheal Area, Vehicle (representative experiment)” value was 89.7 mm^2 and the “Wheal Area, Compound 48/80 (representative experiment)” value is listed as 75.3 mm^2.
Take `CC(C)C[C@H](NC(=O)CNC(=O)[C@H](CS)NC(=O)[C@H](CCC(=O)O)NC(=O)[C@H](CCCCN)NC(=O)[C@H](CC(C)C)NC(=O)[C@H](CC(N)=O)NC(=O)[C@H](CCC(=O)O)NC(=O)[C@H](CCCCN)NC(=O)[C@@H]1CCCN1C(=O)[C@H](C)NC(=O)[C@H](CC(C)C)NC(=O)[C@H](CC(C)C)NC(=O)[C@H](C)NC(=O)[C@H](CC(C)C)NC(=O)[C@H](CC(C)C)NC(=O)[C@@H](NC(=O)[C@H](C)NC(=O)[C@@H]1CCCN1C(=O)[C@H](CC(C)C)NC(=O)[C@H](CC(C)C)NC(=O)[C@H](C)NC(=O)[C@@H](NC(=O)[C@H](C)NC(=O)[C@H](C)NC(=O)CCC(=O)O)C(C)C)C(C)C)C(=O)N[C@@H](Cc1ccc(O)cc1)C(=O)O` [WALL012] (Suc-AAVALLPAVLLALLAPKENLKECGLY-OH; C-terminus assumed): in data set [1], the “Secretagogue (histamine secretion following incubation of mast cell with different concentrations of each peptide)” value is reported as “−”, the “histamine secretion from mast cells on incubation with increasing concentrations of peptide alone” value is “did not result in histamine secretion” and the “basal level … compared to control cells” value was “minor inhibition of the basal level of histamine secretion”. Further, in data set [2], the “IC50, compound 48/80 induced histamine secretion” value was determined as 320 µg/mL (≈ 115 µM); the “maximal inhibition” value is on record as 97.5%; the “Inhibitor” value was “+++ (+++ Potent inhibitor (≧80% inhibition))”. For the same compound, in data set [3], the “block” value is “effectively block the allergic response in vivo” and the “reduction” value is given as “significant inhibition”. Besides, in data set [3] (intradermal peptide 1 mg/ml), the “Mean Wheal Area ± STD, Compound 48/80” value was 104.8 ± 12.6 (n = 5) mm^2 and the “Mean Wheal Area ± STD, Vehicle” value is 71.6 ± 13.8 (n = 5) mm^2. In data set [3] (intradermal peptide 10 mg/ml), the “Mean Wheal Area ± STD, Compound 48/80” value is 75.1 ± 8.5 (n = 5)** mm^2 and the “Mean Wheal Area ± STD, Vehicle” value is 66.7 ± 10.1 (n = 5) mm^2.
As to `CC(C)C[C@H](NC(=O)CNC(=O)[C@H](CS)NC(=O)[C@H](CCC(=O)O)NC(=O)[C@H](CCCCN)NC(=O)[C@H](CC(C)C)NC(=O)[C@H](CC(N)=O)NC(=O)[C@H](C)NC(=O)[C@H](CCCCN)NC(=O)[C@@H]1CCCN1C(=O)[C@H](C)NC(=O)[C@H](CC(C)C)NC(=O)[C@H](CC(C)C)NC(=O)[C@H](C)NC(=O)[C@H](CC(C)C)NC(=O)[C@H](CC(C)C)NC(=O)[C@@H](NC(=O)[C@H](C)NC(=O)[C@@H]1CCCN1C(=O)[C@H](CC(C)C)NC(=O)[C@H](CC(C)C)NC(=O)[C@H](C)NC(=O)[C@@H](NC(=O)[C@H](C)NC(=O)[C@H](C)NC(=O)CCC(=O)O)C(C)C)C(C)C)C(=O)N[C@@H](Cc1ccc(O)cc1)C(=O)O` [WALL013] (Suc-AAVALLPAVLLALLAPKANLKECGLY-OH; C-terminus assumed), in data set [1], the “Secretagogue (histamine secretion following incubation of mast cell with different concentrations of each peptide)” value is given as “−”, the “histamine secretion from mast cells on incubation with increasing concentrations of peptide alone” value is “did not result in histamine secretion” and the “basal level … compared to control cells” value is on record as “minor inhibition of the basal level of histamine secretion”. Further, in data set [2], the “IC50, compound 48/80 induced histamine secretion” value amounted to 245 µg/mL (≈ 89.5 µM); the “maximal inhibition” value stood at 100%; the “Inhibitor” value is given as “+++ (+++ Potent inhibitor (≧80% inhibition))”. In data set [3], the “block” value is “effectively block the allergic response in vivo” and the “reduction” value is recorded as “significantly reduced”. Moreover, in data set [3] (intradermal peptide 1 mg/ml), the “Mean Wheal Area ± STD, Compound 48/80” value is on record as 89.7 ± 13.7 (n = 4)** mm^2 and the “Mean Wheal Area ± STD, Vehicle” value was 74.7 ± 12.0 (n = 4) mm^2. Also, in data set [3] (intradermal peptide 10 mg/ml), the “Mean Wheal Area ± STD, Compound 48/80” value was 96.4 ± 28.4 (n = 4)* mm^2 and the “Mean Wheal Area ± STD, Vehicle” value is listed as 77.3 ± 13.5 (n = 4) mm^2.
